Measurements taken from ChEMBL document CHEMBL4613208, “Isatin derivatives and their anti-bacterial activities” (Eur J Med Chem, 2019).
pIC50: −log10 of the molar value. Converted amounts (≈) assume the structure as drawn.

Key:
Bacillus cereus = experiment: Antibacterial activity against Bacillus cereus after 24 hrs by agar well diffusion technique; format: functional
Staphylococcus aureus [1] = experiment: Antibacterial activity against Staphylococcus aureus ATCC 25923 after 24 hrs by agar well diffusion technique; format: functional; conditions: ATCC 25923, 24 h
Escherichia coli [2] = experiment: Antibacterial activity against Escherichia coli ATCC 25922 after 24 hrs by agar well diffusion technique; format: functional; conditions: ATCC 25922, 24 h
Shigella dysenteriae = experiment: Antibacterial activity against Shigella dysenteriae after 24 hrs by agar well diffusion technique; format: functional
Escherichia coli [3] = experiment: Antibacterial activity against Escherichia coli by two-fold serial dilution technique; format: functional
Bacillus subtilis = experiment: Antibacterial activity against Bacillus subtilis by two-fold serial dilution technique; format: functional
Pseudomonas aeruginosa [4] = experiment: Antibacterial activity against Pseudomonas aeruginosa by two-fold serial dilution technique; format: functional
Staphylococcus aureus [5] = experiment: Antibacterial activity against Staphylococcus aureus by two-fold serial dilution technique; format: functional
Escherichia coli [6] = experiment: Antibacterial activity against Escherichia coli after 24 hrs by paper disc diffusion technique; format: functional; conditions: Escherichia coli, 24 h; read-out: MIC
Staphylococcus aureus [7] = experiment: Antibacterial activity against Staphylococcus aureus after 24 hrs by paper disc diffusion technique; format: functional; conditions: Staphylococcus aureus, 24 h; read-out: MIC
[8] = tested on: Staphylococcus epidermidis; experiment: Antibacterial activity against Staphylococcus epidermidis after 24 hrs by paper disc diffusion technique; format: functional; conditions: Staphylococcus epidermidis, 24 h; read-out: MIC
Micrococcus luteus = experiment: Antibacterial activity against Micrococcus luteus after 24 hrs by paper disc diffusion technique; format: functional; conditions: Micrococcus luteus, 24 h; read-out: MIC
Klebsiella pneumoniae = experiment: Antibacterial activity against Klebsiella pneumoniae after 24 hrs by paper disc diffusion technique; format: functional; conditions: Klebsiella pneumoniae, 24 h; read-out: MIC
Pseudomonas aeruginosa [9] = experiment: Antibacterial activity against Pseudomonas aeruginosa after 24 hrs by paper disc diffusion technique; format: functional; conditions: Pseudomonas aeruginosa, 24 h; read-out: MIC
Escherichia coli [10] = experiment: Antibacterial activity against Escherichia coli; format: functional, organism-based
Pseudomonas aeruginosa [11] = experiment: Antibacterial activity against Pseudomonas aeruginosa; format: functional, organism-based
Staphylococcus aureus [12] = experiment: Antibacterial activity against Staphylococcus aureus; format: functional, organism-based
Salmonella typhi = experiment: Antibacterial activity against Salmonella typhi; format: functional, Salmonella enterica subsp. enterica serovar Typhi; conditions: Salmonella enterica

Structure (SMILES): Cc1cc(NS(=O)(=O)c2ccc(/N=C3\C(=O)N(CO)c4ccccc43)cc2)no1
- MIC (Bacillus cereus): 1 to 15 µg/mL (≈ 2.42 to 36.4 µM)
- MIC (Staphylococcus aureus [1]): 1 to 15 µg/mL (≈ 2.42 to 36.4 µM)
- MIC (Escherichia coli [2]): 1 to 15 µg/mL (≈ 2.42 to 36.4 µM)
- MIC (Shigella dysenteriae): 1 to 15 µg/mL (≈ 2.42 to 36.4 µM)

Structure (SMILES): O=C(N/N=C1\C(=O)Nc2ccc(F)cc21)N/N=C1\C(=O)Nc2ccc(F)cc21
- MIC (Escherichia coli [3]): 6.25 to 100 µg/mL (≈ 16.3 to 260 µM)
- MIC (Bacillus subtilis): 6.25 to 100 µg/mL (≈ 16.3 to 260 µM)
- MIC (Pseudomonas aeruginosa [4]): 6.25 to 100 µg/mL (≈ 16.3 to 260 µM)
- MIC (Staphylococcus aureus [5]): 6.25 to 100 µg/mL (≈ 16.3 to 260 µM)

Structure (SMILES): Cc1cc(NS(=O)(=O)c2ccc(N)cc2)no1 [SULFAMETHOXAZOLE]
- MIC (Bacillus cereus): 2.5 µg/mL (≈ 9.87 µM)
- MIC (Staphylococcus aureus [1]): 2.5 µg/mL (≈ 9.87 µM)
- MIC (Escherichia coli [2]): 2.5 µg/mL (≈ 9.87 µM)
- MIC (Shigella dysenteriae): 2.5 µg/mL (≈ 9.87 µM)

Structure (SMILES): COc1ccc(/C=N/c2ccc(/N=C3/C(=O)N(CN4CCN(c5cc6c(cc5F)c(=O)c(C(=O)O)cn6C5CC5)CC4)c4ccc(F)cc43)cc2)cc1
- MIC (Escherichia coli [6]): 7.81 to 125 µg/mL (≈ 10.9 to 174 µM)
- MIC (Staphylococcus aureus [7]): 7.81 to 125 µg/mL (≈ 10.9 to 174 µM)
- MIC [8]: 7.81 to 125 µg/mL (≈ 10.9 to 174 µM)
- MIC (Micrococcus luteus): 7.81 to 125 µg/mL (≈ 10.9 to 174 µM)
- MIC (Klebsiella pneumoniae): 7.81 to 125 µg/mL (≈ 10.9 to 174 µM)
- MIC (Pseudomonas aeruginosa [9]): 7.81 to 125 µg/mL (≈ 10.9 to 174 µM)

Structure (SMILES): O=C(N/N=C1\C(=O)Nc2ccc(Cl)cc21)N/N=C1\C(=O)Nc2ccc(Cl)cc21
- MIC (Escherichia coli [3]): 6.25 to 100 µg/mL (≈ 15 to 240 µM)
- MIC (Bacillus subtilis): 6.25 to 100 µg/mL (≈ 15 to 240 µM)
- MIC (Pseudomonas aeruginosa [4]): 6.25 to 100 µg/mL (≈ 15 to 240 µM)
- MIC (Staphylococcus aureus [5]): 6.25 to 100 µg/mL (≈ 15 to 240 µM)

Structure (SMILES): Cc1c(C)c2c(c(C)c1O)CCC(C)(C(=O)N/N=C1\C(=O)N(C)c3ccccc31)O2 (stereo unspecified)
- MIC (Escherichia coli [10]): 12.5 to 100 µg/mL (≈ 30.7 to 245 µM)
- MIC (Pseudomonas aeruginosa [11]): 12.5 to 100 µg/mL
- MIC (Staphylococcus aureus [12]): 12.5 to 100 µg/mL (≈ 30.7 to 245 µM)

Structure (SMILES): Cc1c(C)c2c(c(C)c1O)CCC(C)(C(=O)N/N=C1\C(=O)Nc3cc(Cl)ccc31)O2 (stereo unspecified)
- MIC (Escherichia coli [10]): 12.5 to 100 µg/mL (≈ 29.2 to 234 µM)
- MIC (Pseudomonas aeruginosa [11]): 12.5 to 100 µg/mL
- MIC (Staphylococcus aureus [12]): 12.5 to 100 µg/mL (≈ 29.2 to 234 µM)

Structure (SMILES): O=C(N/N=C1\C(=O)Nc2ccc(C(=O)O)cc21)N/N=C1\C(=O)Nc2ccc(C(=O)O)cc21
- MIC (Escherichia coli [3]): 6.25 to 100 µg/mL (≈ 14.3 to 229 µM)
- MIC (Bacillus subtilis): 6.25 to 100 µg/mL (≈ 14.3 to 229 µM)
- MIC (Pseudomonas aeruginosa [4]): 6.25 to 100 µg/mL (≈ 14.3 to 229 µM)
- MIC (Staphylococcus aureus [5]): 6.25 to 100 µg/mL (≈ 14.3 to 229 µM)

Structure (SMILES): O=C(CN1C(=O)/C(=N\c2ccccc2)c2ccccc21)Nc1ccccc1
- MIC (Pseudomonas aeruginosa [11]): 3 to 324 nM
- MIC (Salmonella typhi): 3 to 324 nM (≈ 1.07 to 115 ng/mL)

Structure (SMILES): Cc1ccc(/C=N/c2ccc(/N=C3/C(=O)N(CN4CCN(c5cc6c(cc5F)c(=O)c(C(=O)O)cn6C5CC5)CC4)c4ccc(F)cc43)cc2)cc1
- MIC (Escherichia coli [6]): 7.81 to 125 µg/mL (≈ 11.1 to 178 µM)
- MIC (Staphylococcus aureus [7]): 7.81 to 125 µg/mL (≈ 11.1 to 178 µM)
- MIC [8]: 7.81 to 125 µg/mL (≈ 11.1 to 178 µM)
- MIC (Micrococcus luteus): 7.81 to 125 µg/mL (≈ 11.1 to 178 µM)
- MIC (Klebsiella pneumoniae): 7.81 to 125 µg/mL (≈ 11.1 to 178 µM)
- MIC (Pseudomonas aeruginosa [9]): 7.81 to 125 µg/mL (≈ 11.1 to 178 µM)

Structure (SMILES): Cc1ccccc1NC(=O)CN1C(=O)/C(=N\c2ccccc2)c2ccccc21
- MIC (Pseudomonas aeruginosa [11]): 3 to 324 nM
- MIC (Salmonella typhi): 3 to 324 nM (≈ 1.11 to 120 ng/mL)

Structure (SMILES): O=C(O)c1cn(C2CC2)c2cc(N3CCN(CN4C(=O)/C(=N/c5ccc(/N=C/c6ccc([N+](=O)[O-])cc6)cc5)c5cc(F)ccc54)CC3)c(F)cc2c1=O
- MIC (Escherichia coli [6]): 7.81 to 125 µg/mL (≈ 10.7 to 171 µM)
- MIC (Staphylococcus aureus [7]): 7.81 to 125 µg/mL (≈ 10.7 to 171 µM)
- MIC [8]: 7.81 to 125 µg/mL (≈ 10.7 to 171 µM)
- MIC (Micrococcus luteus): 7.81 to 125 µg/mL (≈ 10.7 to 171 µM)
- MIC (Klebsiella pneumoniae): 7.81 to 125 µg/mL (≈ 10.7 to 171 µM)
- MIC (Pseudomonas aeruginosa [9]): 7.81 to 125 µg/mL (≈ 10.7 to 171 µM)

Structure (SMILES): CC[C@H]1OC(=O)[C@H](C)[C@@H](O[C@H]2C[C@@](C)(OC)[C@@H](O)[C@H](C)O2)[C@H](C)[C@@H](O[C@@H]2O[C@H](C)C[C@H](N(C)C)[C@H]2O)[C@](C)(O)C[C@@H](C)CN(C)[C@H](C)[C@@H](O)[C@]1(C)O [AZITHROMYCIN]
- MIC (Escherichia coli [10]): 6.25 to 12.5 µg/mL (≈ 8.34 to 16.7 µM)
- MIC (Pseudomonas aeruginosa [11]): 6.25 to 12.5 µg/mL
- MIC (Staphylococcus aureus [12]): 6.25 to 12.5 µg/mL (≈ 8.34 to 16.7 µM)

Structure (SMILES): COc1cccc(NC(=O)CN2C(=O)/C(=N\c3cc(C)ccc3C)c3ccccc32)c1
- MIC (Pseudomonas aeruginosa [11]): 3 to 15 nM
- MIC (Salmonella typhi): 3 to 15 nM (≈ 1.24 to 6.2 ng/mL)

Structure (SMILES): Cc1ccc(C)c(/N=C2\C(=O)N(CC(=O)Nc3cc(C)ccc3C)c3ccccc32)c1
- MIC (Pseudomonas aeruginosa [11]): 3 to 324 nM
- MIC (Salmonella typhi): 3 to 324 nM (≈ 1.23 to 133 ng/mL)

Structure (SMILES): Cc1ccc(C)c(/N=C2\C(=O)N(CC(=O)Nc3ccccc3)c3ccccc32)c1
- MIC (Pseudomonas aeruginosa [11]): 3 to 324 nM
- MIC (Salmonella typhi): 3 to 324 nM (≈ 1.15 to 124 ng/mL)

Structure (SMILES): O=C(N/N=C1\C(=O)N(Cc2ccccc2)c2ccc(Cl)cc21)N/N=C1\C(=O)N(Cc2ccccc2)c2ccc(Cl)cc21
- MIC (Escherichia coli [3]): 6.25 to 100 µg/mL (≈ 10.5 to 167 µM)
- MIC (Bacillus subtilis): 6.25 to 100 µg/mL (≈ 10.5 to 167 µM)
- MIC (Pseudomonas aeruginosa [4]): 6.25 to 100 µg/mL (≈ 10.5 to 167 µM)
- MIC (Staphylococcus aureus [5]): 6.25 to 100 µg/mL (≈ 10.5 to 167 µM)

Structure (SMILES): Cc1c(C)c2c(c(C)c1O)CCC(C)(C(=O)N/N=C1\C(=O)N(C)c3ccc(Cl)cc31)O2 (stereo unspecified)
- MIC (Escherichia coli [10]): 12.5 to 100 µg/mL (≈ 28.3 to 226 µM)
- MIC (Pseudomonas aeruginosa [11]): 12.5 to 100 µg/mL
- MIC (Staphylococcus aureus [12]): 12.5 to 100 µg/mL (≈ 28.3 to 226 µM)

Structure (SMILES): Cc1c(C)c2c(c(C)c1O)CCC(C)(C(=O)N/N=C1\C(=O)Nc3ccc(Br)cc31)O2 (stereo unspecified)
- MIC (Escherichia coli [10]): 12.5 to 100 µg/mL (≈ 26.5 to 212 µM)
- MIC (Pseudomonas aeruginosa [11]): 12.5 to 100 µg/mL
- MIC (Staphylococcus aureus [12]): 12.5 to 100 µg/mL (≈ 26.5 to 212 µM)

Structure (SMILES): O=C1Nc2ccccc2/C1=N/NC(=O)c1cccc(Br)c1
- pIC50 (Escherichia coli [10]): 4.30 to 4.52
- pIC50 (Pseudomonas aeruginosa [11]): 4.30 to 4.52
- pIC50 (Staphylococcus aureus [12]): 4.30 to 4.52

Structure (SMILES): O=C(O)c1cn(C2CC2)c2cc(N3CCN(CN4C(=O)/C(=N/c5ccc(/N=C/c6ccc(Cl)cc6)cc5)c5cc(F)ccc54)CC3)c(F)cc2c1=O
- MIC (Escherichia coli [6]): 7.81 to 125 µg/mL (≈ 10.8 to 173 µM)
- MIC (Staphylococcus aureus [7]): 7.81 to 125 µg/mL (≈ 10.8 to 173 µM)
- MIC [8]: 7.81 to 125 µg/mL (≈ 10.8 to 173 µM)
- MIC (Micrococcus luteus): 7.81 to 125 µg/mL (≈ 10.8 to 173 µM)
- MIC (Klebsiella pneumoniae): 7.81 to 125 µg/mL (≈ 10.8 to 173 µM)
- MIC (Pseudomonas aeruginosa [9]): 7.81 to 125 µg/mL (≈ 10.8 to 173 µM)

Structure (SMILES): O=C(N/N=C1\C(=O)Nc2ccccc21)N/N=C1\C(=O)Nc2ccccc21
- MIC (Escherichia coli [3]): 6.25 to 100 µg/mL (≈ 17.9 to 287 µM)
- MIC (Bacillus subtilis): 6.25 to 100 µg/mL (≈ 17.9 to 287 µM)
- MIC (Pseudomonas aeruginosa [4]): 6.25 to 100 µg/mL (≈ 17.9 to 287 µM)
- MIC (Staphylococcus aureus [5]): 6.25 to 100 µg/mL (≈ 17.9 to 287 µM)

Structure (SMILES): O=C(O)c1cn(C2CC2)c2cc(N3CCN(CN4C(=O)/C(=N/c5ccc(/N=C/c6cccc([N+](=O)[O-])c6)cc5)c5cc(F)ccc54)CC3)c(F)cc2c1=O
- MIC (Escherichia coli [6]): 7.81 to 125 µg/mL (≈ 10.7 to 171 µM)
- MIC (Staphylococcus aureus [7]): 7.81 to 125 µg/mL (≈ 10.7 to 171 µM)
- MIC [8]: 7.81 to 125 µg/mL (≈ 10.7 to 171 µM)
- MIC (Micrococcus luteus): 7.81 to 125 µg/mL (≈ 10.7 to 171 µM)
- MIC (Klebsiella pneumoniae): 7.81 to 125 µg/mL (≈ 10.7 to 171 µM)
- MIC (Pseudomonas aeruginosa [9]): 7.81 to 125 µg/mL (≈ 10.7 to 171 µM)
